From US11612606B2, “8-aminoisoquinoline compounds and uses thereof” (priority 2018, dated 2023) come the findings set out here.

SMILES strings stand for the structures. pKi: −log10 of the molar value. Where a name gives a salt, the structure may show the parent alone. Read-outs that look alike come from different tables or passages of the source.

In this assay the target is HPK full length, T165E S171E (Homo sapiens (Human), UniProt Q92918, S171E/T165E). Description: HPK1-FL HTRF enzymatic assay ("HTRF"). The assay is classed as biochemical. The conditions noted are these: ATP 1 mM. Put shortly: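 Full-length HPK1 (T165E/S171E) was preincubated 30 min with compound, then reacted 60 min with biotin-SLP-76 and 1 mM ATP. Phospho-SLP-76 was detected by HTRF (Eu-anti-pSLP76 antibody, SA-XL665) after a further 60 min.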
(In general: In TR-FRET formats the signal depends on donor and acceptor labels being close together.)

Sequence of HPK full length, T165E S171E (Q92918 whole entry T165E/S171E, looked up): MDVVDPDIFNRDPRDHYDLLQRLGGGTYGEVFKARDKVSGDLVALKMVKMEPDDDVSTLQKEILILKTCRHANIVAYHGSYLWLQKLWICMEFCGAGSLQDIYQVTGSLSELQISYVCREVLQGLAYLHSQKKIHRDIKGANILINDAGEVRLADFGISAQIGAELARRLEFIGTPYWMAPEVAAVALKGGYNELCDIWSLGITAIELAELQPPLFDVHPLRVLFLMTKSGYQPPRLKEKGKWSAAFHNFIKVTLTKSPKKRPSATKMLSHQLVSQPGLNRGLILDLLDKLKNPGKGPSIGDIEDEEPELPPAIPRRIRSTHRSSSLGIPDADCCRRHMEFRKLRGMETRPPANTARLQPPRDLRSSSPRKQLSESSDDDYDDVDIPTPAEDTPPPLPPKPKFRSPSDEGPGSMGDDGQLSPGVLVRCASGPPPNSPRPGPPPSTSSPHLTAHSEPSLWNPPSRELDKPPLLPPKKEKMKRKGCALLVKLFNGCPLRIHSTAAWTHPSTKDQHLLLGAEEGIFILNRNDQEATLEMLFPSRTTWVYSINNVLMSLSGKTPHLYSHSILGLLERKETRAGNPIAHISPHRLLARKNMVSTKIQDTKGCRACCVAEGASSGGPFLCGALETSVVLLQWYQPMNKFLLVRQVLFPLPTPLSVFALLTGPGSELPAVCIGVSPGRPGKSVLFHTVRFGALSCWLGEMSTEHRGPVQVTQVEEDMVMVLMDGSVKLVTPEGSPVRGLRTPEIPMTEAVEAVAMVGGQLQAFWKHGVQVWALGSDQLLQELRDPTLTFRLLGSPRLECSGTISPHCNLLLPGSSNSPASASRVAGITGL

Usually pKi stands for the Ki on a negative log10 scale, so that one unit is a factor of ten. Turning to `Cc1c(-c2cc3cc(NC(=O)O[C@H]4C[C@@H](C(C)(C)C#N)C4)ncc3c(N)c2F)cnc2c1NCCO2` [Compound 549a, (1s,3s)-3-(2-Cyanopropan-2-yl)cyclobutyl (8-amino-7-fluoro-6-(8-methyl-2,3-dihydro-1H-pyrido[2,3-b][1,4]oxazin-7-yl)isoquinolin-3-yl)carbamate], the pKi (read-out: HPK1 Ki) was more than 10.89. Same read-out and setting: then `Cc1c(-c2cc3cc(NC(=O)O[C@H]4C[C@H](C(C)(C)C#N)C4)ncc3c(N)c2F)cnc2c1NCCO2` [Compound 549b, (1r,3r)-3-(2-Cyanopropan-2-yl)cyclobutyl (8-amino-7-fluoro-6-(8-methyl-2,3-dihydro-1H-pyrido[2,3-b][1,4]oxazin-7-yl)isoquinolin-3-yl)carbamate], with more than 10.89. The compound `Cc1c(-c2cc3cc(NC(=O)O[C@H]4C[C@@H](N5CCOCC5)C4)ncc3c(N)c2F)cnc2c1NCCO2` [Compound 550b, (1s,3s)-3-Morpholinocyclobutyl (8-amino-7-fluoro-6-(8-methyl-2,3-dihydro-1H-pyrido[2,3-b][1,4]oxazin-7-yl)isoquinolin-3-yl)carbamate] gave a pKi (HPK1 Ki) of 10.27. `Cc1c(-c2cc3cc(NC(=O)OC4CC(O)(C5CC5)C4)ncc3c(N)c2F)cnc2c1NCCO2` (centres unmarked) [Compound 551a, (3-Cyclopropyl-3-hydroxy-cyclobutyl) N-[8-amino-7-fluoro-6-(8-methyl-2,3-dihydro-1H-pyrido[2,3-b][1,4]oxazin-7-yl)-3-isoquinolyl]carbamate]: under “read-out: HPK1 Ki”, the pKi was more than 10.89. Turning to `Cc1c(-c2cc3cc(NC(=O)OC4CN(S(C)(=O)=O)C4)ncc3c(N)c2F)cnc2c1NCCO2` [Compound 552, 1-(Methylsulfonyl)azetidin-3-yl (8-amino-7-fluoro-6-(8-methyl-2,3-dihydro-1H-pyrido[2,3-b][1,4]oxazin-7-yl)isoquinolin-3-yl)carbamate], the pKi (read-out: HPK1 Ki) was 10.85. On to `Cc1c(-c2cc3cc(NC(=O)O[C@H]4C[C@@H](O)C4)ncc3c(N)c2F)cnc2c1NCCC2` [Compound 553a, (1s,3s)-3-hydroxycyclobutyl (8-amino-7-fluoro-6-(4-methyl-5,6,7,8-tetrahydro-1,5-naphthyridin-3-yl)isoquinolin-3-yl)carbamate], for which, for the setting “read-out: HPK1 Ki”, the pKi was more than 10.89. Take `Cc1c(-c2cc3cc(NC(=O)O[C@]4(C)C[C@H](O)C4)ncc3c(N)c2F)cnc2c1NCCO2` [Compound 554a, (1s,3s)-3-Hydroxy-1-methylcyclobutyl (8-amino-7-fluoro-6-(8-methyl-2,3-dihydro-1H-pyrido[2,3-b][1,4]oxazin-7-yl)isoquinolin-3-yl)carbamate]: where the note is “read-out: HPK1 Ki”, the pKi was 9.60.

Turning to `Cc1c(-c2cc(N)c3cnc(NC(=O)O[C@H]4C[C@@H](C#N)C4)cc3c2)cnc2c1NCCO2` [Compound 557a, (1s,3s)-3-Cyanocyclobutyl (8-amino-6-(8-methyl-2,3-dihydro-1H-pyrido[2,3-b][1,4]oxazin-7-yl)isoquinolin-3-yl)carbamate hydrochloride], the pKi (read-out: HPK1 Ki) was more than 10.89. On to `Cc1c(-c2cc3cc(NC(=O)O[C@H]4CC[C@@H]4C)ncc3c(N)c2F)cnc2c1NCCO2` [Compound 559b, [(1S,2S)-2-methylcyclobutyl]N-[8-amino-7-fluoro-6-(8-methyl-2,3-dihydro-1H-pyrido[2,3-b][1,4]oxazin-7-yl)-3-isoquinolyl]carbamate], for which, where the note is “read-out: HPK1 Ki”, the pKi was 9.85. For the compound `Cc1c(-c2cc3cc(NC(=O)O[C@H]4CC[C@H]4C)ncc3c(N)c2F)cnc2c1NCCO2` [Compound 559d, [(1S,2R)-2-methylcyclobutyl]N-[8-amino-7-fluoro-6-(8-methyl-2,3-dihydro-1H-pyrido[2,3-b][1,4]oxazin-7-yl)-3-isoquinolyl]carbamate], for the setting “read-out: HPK1 Ki”, the pKi was more than 10.89.

As for `Cc1c(-c2cc3cc(NC(=O)OC4CC(O)C4)ncc3c(N)c2F)cnc2c1NC[C@H](C)C2` (stereo partly drawn) [Compound 560b, (1s,3s)-3-Hydroxycyclobutyl (8-amino-6-((R)-4,7-dimethyl-5,6,7,8-tetrahydro-1,5-naphthyridin-3-yl)-7-fluoroisoquinolin-3-yl)carbamate], the negative logarithm of the Ki (pKi) (read-out: HPK1 Ki) is 9.49. Consider `Cc1c(-c2cc3cc(NC(=O)O[C@@H]4CCOC4)ncc3c(N)c2F)cnc2c1C(C#N)CCO2` (stereo partly drawn) [Compound 562a, (R)-Tetrahydrofuran-3-yl (8-amino-6-(4-cyano-5-methyl-3,4-dihydro-2H-pyrano[2,3-b]pyridin-6-yl)-7-fluoroisoquinolin-3-yl)carbamate], for which, for the setting “read-out: HPK1 Ki”, the pKi is 10.17.

Regarding `Cc1c(-c2cc3cc(NC(=O)O[C@@H]4CO[C@H]5COC[C@H]54)ncc3c(N)c2F)cnc2c1NCCO2` [Compound 563a, (3S,3aR,6aR)-Hexahydrofuro[3,4-b]furan-3-yl (8-amino-7-fluoro-6-(8-methyl-2,3-dihydro-1H-pyrido[2,3-b][1,4]oxazin-7-yl)isoquinolin-3-yl)carbamate], the pKi (HPK1 Ki) was 9.66. In the case of `Cc1c(-c2cc3cc(NC(=O)O[C@@H]4CCN([C@H]5CCOC5)C[C@@H]4F)ncc3c(N)c2F)cnc2c1NCCO2` [Compound 569a, (3S,4R)-3-Fluoro-1-((S)-tetrahydrofuran-3-yl)piperidin-4-yl (8-amino-7-fluoro-6-(8-methyl-2,3-dihydro-1H-pyrido[2,3-b][1,4]oxazin-7-yl)isoquinolin-3-yl)carbamate], under “read-out: HPK1 Ki”, the pKi was 9.56. As for `Cc1c(-c2cc3cc(NC(=O)O[C@@H]4CCN([C@@H]5CCOC5)C[C@@H]4F)ncc3c(N)c2F)cnc2c1NCCO2` [Compound 569b, (3S,4R)-3-fluoro-1-((R)-tetrahydrofuran-3-yl)piperidin-4-yl (8-amino-7-fluoro-6-(8-methyl-2,3-dihydro-1H-pyrido[2,3-b][1,4]oxazin-7-yl)isoquinolin-3-yl)carbamate], under “read-out: HPK1 Ki”, the pKi was 9.60. Consider `Cc1c(-c2cc3cc(NC(=O)O[C@H]4CCN([C@H]5CCOC5)C[C@H]4F)ncc3c(N)c2F)cnc2c1NCCO2` [Compound 569c, (3R,4S)-3-fluoro-1-((S)-tetrahydrofuran-3-yl)piperidin-4-yl (8-amino-7-fluoro-6-(8-methyl-2,3-dihydro-1H-pyrido[2,3-b][1,4]oxazin-7-yl)isoquinolin-3-yl)carbamate], for which, for the setting “read-out: HPK1 Ki”, the pKi is 10.54. Turning to `Cc1c(-c2cc3cc(NC(=O)O[C@H]4CCN([C@@H]5CCOC5)C[C@H]4F)ncc3c(N)c2F)cnc2c1NCCO2` [Compound 569d, (3R,4S)-3-fluoro-1-((R)-tetrahydrofuran-3-yl)piperidin-4-yl (8-amino-7-fluoro-6-(8-methyl-2,3-dihydro-1H-pyrido[2,3-b][1,4]oxazin-7-yl)isoquinolin-3-yl)carbamate], the pKi (HPK1 Ki) is 10.51.

As to `Cc1c(-c2cc3cc(NC(=O)O[C@H]4C[C@H](CO)C4)ncc3c(N)c2F)cnc2c1NCCO2` [Compound 571a, (1r,3r)-3-(Hydroxymethyl)cyclobutyl (8-amino-7-fluoro-6-(8-methyl-2,3-dihydro-1H-pyrido[2,3-b][1,4]oxazin-7-yl)isoquinolin-3-yl)carbamate], where the note is “read-out: HPK1 Ki”, the pKi was 10.85. With `Cc1c(-c2cc3cc(NC(=O)O[C@H]4C[C@@H](CO)C4)ncc3c(N)c2F)cnc2c1NCCO2` [Compound 571b, (1s,3s)-3-(Hydroxymethyl)cyclobutyl (8-amino-7-fluoro-6-(8-methyl-2,3-dihydro-1H-pyrido[2,3-b][1,4]oxazin-7-yl)isoquinolin-3-yl)carbamate], the pKi (read-out: HPK1 Ki) is more than 10.89.

For the compound `Cc1c(-c2cc3cc(NC(=O)O[C@H]4C[C@@H](S(C)(=O)=O)C4)ncc3c(N)c2F)cnc2c1NCCO2` [Compound 572a, (1s,3s)-3-(Methylsulfonyl)cyclobutyl (8-amino-7-fluoro-6-(8-methyl-2,3-dihydro-1H-pyrido[2,3-b][1,4]oxazin-7-yl)isoquinolin-3-yl)carbamate], the pKi (read-out: HPK1 Ki) is more than 10.89. On the same count and under the same terms, then `Cc1c(-c2cc3cc(NC(=O)O[C@H]4C[C@@H](C(C)(C)O)C4)ncc3c(N)c2F)cnc2c1NCCO2` [Compound 574b, (1s,3s)-3-(2-hydroxypropan-2-yl)cyclobutyl (8-amino-7-fluoro-6-(8-methyl-2,3-dihydro-1H-pyrido[2,3-b][1,4]oxazin-7-yl)isoquinolin-3-yl)carbamate], with more than 10.89; and `Cc1c(-c2cc3cc(NC(=O)OC4C5COCC4CN(C4COC4)C5)ncc3c(N)c2F)cnc2c1NCCO2` [Compound 575a, (1R,5S,9s)-7-(Oxetan-3-yl)-3-oxa-7-azabicyclo[3.3.1]nonan-9-yl (8-amino-7-fluoro-6-(8-methyl-2,3-dihydro-1H-pyrido[2,3-b][1,4]oxazin-7-yl)isoquinolin-3-yl)carbamate], with more than 10.89; and `CO[C@H]1C[C@H](OC(=O)Nc2cc3cc(-c4cnc5c(c4C)NCCO5)c(F)c(N)c3cn2)C1` [Compound 576a, (1r, 3r)-3-Methoxycyclobutyl (8-amino-7-fluoro-6-(8-methyl-2,3-dihydro-1H-pyrido[2,3-b][1,4]oxazin-7-yl)isoquinolin-3-yl)carbamate], with more than 10.89. For `Cc1c(-c2cc3cc(NC(=O)O[C@H]4C[C@@H](C(F)F)C4)ncc3c(N)c2F)cnc2c1NCCO2` [Compound 577a, (1s,3s)-3-(difluoromethyl)cyclobutyl (8-amino-7-fluoro-6-(8-methyl-2,3-dihydro-1H-pyrido[2,3-b][1,4]oxazin-7-yl)isoquinolin-3-yl)carbamate], the pKi (read-out: HPK1 Ki) is 10.82.

For `Cc1c(-c2cc3cc(NC(=O)O[C@H]4C[C@H](C(F)F)C4)ncc3c(N)c2F)cnc2c1NCCO2` [Compound 577b, (1r,3r)-3-(difluoromethyl)cyclobutyl (8-amino-7-fluoro-6-(8-methyl-2,3-dihydro-1H-pyrido[2,3-b][1,4]oxazin-7-yl)isoquinolin-3-yl)carbamate], the pKi (read-out: HPK1 Ki) is more than 10.89. Turning to `Cc1c(-c2cc3cc(NC(=O)OC4CCS(=O)(=O)CC4)ncc3c(N)c2F)cnc2c1NCCC2` [Compound 579, 1,1-Dioxidotetrahydro-2H-thiopyran-4-yl (8-amino-7-fluoro-6-(4-methyl-5,6,7,8-tetrahydro-1,5-naphthyridin-3-yl)isoquinolin-3-yl)carbamate], the pKi (read-out: HPK1 Ki) is 9.07.
